Tested on: skin
Assay: 21-Day Cumulative Irritation Test
Format: in vivo, human
Protocol: Each of the formulations of Examples 1-11 was evaluated for its tendency to cause skin erythema using the 21-Day Cumulative Irritation Test. In this test, 0.2 g of undiluted deodorant is applied daily for 21 days (excluding weekends) to the same 2-cm square patch of skin, which is occluded between applications. Each weekday during the test period, trained personnel grade the portion of skin where the test material is applied for signs of irritation and reapply the test material. Subjects fulfill specific inclusion criteria including not pregnant or breast feeding, over 18 years old, and without medical conditions which would interfere with the test. The grading system used is as follows:
0.5 Papular or papulovesicular response and/or dryness without erythema […]
The total score is calculated by summing each individual's score on the 21 days of the test. […] The normalized score is the total score divided by the total number of readings for all subjects and multiplied by 21 (the number of readings) and by 10 (to normalize to 10 subjects). Normalized scores are analyzed using ANOVA (analysis of variance technique described in Duncan, A. J., “Analysis of Variance”, Quality Control and Industrial Statistics (Irwin Publishers, Homewood, Ill. 1986) including the effects of subject and product. Product comparisons are made at the 5% level based on Fisher's least significant differences. […]

## CCCCCCCCCCCCOS(=O)(=O)[O-].[Na+] [Sodium Lauryl Sulfate]
0.2 g undiluted product applied daily for 21 days to same occluded 2-cm square skin patch, total score normalized to 21 readings and 10 subjects
  Normalized Score: 431.8
Classification of the normalized score, 21-Day Cumulative Irritation Test
  Irritation Classification: Moderate

Reference: patent US6531119B1, “Compositions with low irritancy” (priority 1998, dated 2003)
